Test results reported in patent publication US20080274892A1, “Novel Haloalkylsulfonanilide Derivative, Herbicide, and Method of Use Thereof” (priority 2005, published 2008).

Key:
[1] = tested on: false pimpernel; test: Test Example 1: herbicidal efficacy on rice paddy weeds pre-emergence; assay type: in vivo, Lindernia pyxidaria; settings: dosage 1000 g/ha, 21 days
[2] = tested on: bulrush; test: Test Example 4: low dosage test for rice paddy weeds; assay type: in vivo, Scirpus juncoides; settings: 300 g/ha as an active ingredient; plants treated at the one leaf stage; 21 days after treatment; vs untreated control
Outline: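 Bulrush sown in clay loam pots, flooded to 5 cm water in a hot house, treated at the one-leaf stage with formulated compound at 300 g/ha. Efficacy scored 0–4 against untreated control 21 days after treatment (4 = 90–100%, 0 = 0% inhibition).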

[3] = tested on: barnyard glass; test: Test Example 2: herbicidal efficacy on rice paddy weeds post-emergence; assay type: in vivo, Echinochloa crus-galli; settings: dosage 1000 g/ha; post-emergence, one leaf stage; 21 days after treatment
Outline: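 Plastic pots of 75 cm^2 were filled with clay loam soil and sown with barnyard glass and bulrush seeds, then topped with 75 cm^3 soil containing false pimpernel seeds. The pots were flooded to 5 cm water depth and held in a hot house. Twenty-one days after treatment, herbicidal efficacy was graded against an untreated control.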

[4] = tested on: transplanted paddy rice plant and Bulrush; test: Test Example 5: selectivity between transplanted paddy rice plant and weeds; assay type: in vivo; settings: (highest dosage with no phytotoxicity to paddy rice)/(lowest dosage with effective level 4 on Bulrush); rice 3000-100 g/ha, Bulrush 300-10 g/ha; 21 days
Outline: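 Transplanted paddy rice was treated at 3000, 1000, 300 and 100 g/ha active ingredient for phytotoxicity, and post-emergence bulrush at 300, 100, 30 and 10 g/ha. Plants were kept in a hothouse for 21 days. Growth inhibition versus untreated control was scored 0–4 (0%, 1–39%, 40–69%, 70–89%, 90–100%).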

[5] = tested on: paddy rice plant (cultivar: Nihonbare); test: Test Example 3: phytotoxicity test for transplanted paddy rice plant; assay type: in vivo; settings: dosage 1000 g/ha; transplanted rice, treated 5 days after transplantation; 21 days after treatment
Outline: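 Clay loam soil was placed in a 75 cm^2 plastic pot and flooded to a water depth of 5 cm. Two Nihonbare paddy rice plants at the two-leaf stage were transplanted 1 cm deep and grown in a hot house. After treatment, pots stayed in the hot house for 21 days, and phytotoxicity was then graded against an untreated control.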

[6] = tested on: bulrush; test: Test Example 2: herbicidal efficacy on rice paddy weeds post-emergence; assay type: in vivo, Scirpus juncoides; settings: dosage 1000 g/ha; post-emergence, one leaf stage; 21 days after treatment
[7] = tested on: false pimpernel; test: as above; assay type: in vivo, Lindernia pyxidaria; settings: dosage 1000 g/ha; post-emergence, one leaf stage; 21 days after treatment
[8] = tested on: bulrush; test: Test Example 1: herbicidal efficacy on rice paddy weeds pre-emergence; assay type: in vivo, Scirpus juncoides; settings: dosage 1000 g/ha, 21 days

SMILES	False pimpernel pre (herbicidal efficacy grade) [1]	Herbicide effect to Bulrush [2]	Burnyard grass post (herbicidal efficacy grade) [3]	Selective Index [4]	Phytotoxicity to paddy rice [5]	Bulrush post (herbicidal efficacy grade) [6]	False pimpernel post (herbicidal efficacy grade) [7]	Bulrush pre (herbicidal efficacy grade) [8]
COC(=O)N(c1ccccc1CN1CC(C)(C2CCCCC2)OC1=O)S(=O)(=O)C(F)(F)F (centres unmarked) [1-157]	4 (90%-100% of herbicidal efficacy or phytotoxicity)	3 (70%-89% of herbicidal efficacy or phytotoxicity)	4 (90%-100% of herbicidal efficacy or phytotoxicity)	3	1 (1%-39% of herbicidal efficacy or phytotoxicity)	4 (90%-100% of herbicidal efficacy or phytotoxicity)	4 (90%-100% of herbicidal efficacy or phytotoxicity)	4 (90%-100% of herbicidal efficacy or phytotoxicity)
CC1(C2(C)CN(Cc3ccccc3NS(=O)(=O)C(F)(F)F)C(=O)O2)CC1 (centres unmarked) [1-167]	4 (90%-100% of herbicidal efficacy or phytotoxicity)	4 (90%-100% of herbicidal efficacy or phytotoxicity)	4 (90%-100% of herbicidal efficacy or phytotoxicity)	≧10	1 (1%-39% of herbicidal efficacy or phytotoxicity)	4 (90%-100% of herbicidal efficacy or phytotoxicity)	4 (90%-100% of herbicidal efficacy or phytotoxicity)	4 (90%-100% of herbicidal efficacy or phytotoxicity)
CC(C)COC(=O)N(c1ccccc1CN1CC(C)(C2(C)CC2)OC1=O)S(=O)(=O)C(F)(F)F (centres unmarked) [1-168]	4 (90%-100% of herbicidal efficacy or phytotoxicity)	4 (90%-100% of herbicidal efficacy or phytotoxicity)	4 (90%-100% of herbicidal efficacy or phytotoxicity)	10	1 (1%-39% of herbicidal efficacy or phytotoxicity)	4 (90%-100% of herbicidal efficacy or phytotoxicity)	4 (90%-100% of herbicidal efficacy or phytotoxicity)	4 (90%-100% of herbicidal efficacy or phytotoxicity)
COC(=O)N(c1ccccc1CN1CC(C)(C2(C)CC2)OC1=O)S(=O)(=O)C(F)(F)F (centres unmarked) [1-169]	4 (90%-100% of herbicidal efficacy or phytotoxicity)	4 (90%-100% of herbicidal efficacy or phytotoxicity)	4 (90%-100% of herbicidal efficacy or phytotoxicity)	10	1 (1%-39% of herbicidal efficacy or phytotoxicity)	4 (90%-100% of herbicidal efficacy or phytotoxicity)	4 (90%-100% of herbicidal efficacy or phytotoxicity)	4 (90%-100% of herbicidal efficacy or phytotoxicity)
CC(C)COC(=O)N(c1ccccc1CN1CC(C2CC2)(C2CC2)OC1=O)S(=O)(=O)C(F)(F)F [1-171]	4 (90%-100% of herbicidal efficacy or phytotoxicity)	4 (90%-100% of herbicidal efficacy or phytotoxicity)	4 (90%-100% of herbicidal efficacy or phytotoxicity)	10	1 (1%-39% of herbicidal efficacy or phytotoxicity)	4 (90%-100% of herbicidal efficacy or phytotoxicity)	4 (90%-100% of herbicidal efficacy or phytotoxicity)	4 (90%-100% of herbicidal efficacy or phytotoxicity)
CCC1(CC)CN(Cc2ccccc2NS(=O)(=O)C(F)(F)F)C(=S)O1 [1-178]	4 (90%-100% of herbicidal efficacy or phytotoxicity)	4 (90%-100% of herbicidal efficacy or phytotoxicity)	4 (90%-100% of herbicidal efficacy or phytotoxicity)	10	1 (1%-39% of herbicidal efficacy or phytotoxicity)	4 (90%-100% of herbicidal efficacy or phytotoxicity)	4 (90%-100% of herbicidal efficacy or phytotoxicity)	4 (90%-100% of herbicidal efficacy or phytotoxicity)
CCC1(CC)CN(Cc2ccccc2N(C(=O)OCC(C)C)S(=O)(=O)C(F)(F)F)C(=S)O1 [1-179]	4 (90%-100% of herbicidal efficacy or phytotoxicity)	4 (90%-100% of herbicidal efficacy or phytotoxicity)	4 (90%-100% of herbicidal efficacy or phytotoxicity)	33.3	0 (0% of herbicidal efficacy or phytotoxicity)	4 (90%-100% of herbicidal efficacy or phytotoxicity)	4 (90%-100% of herbicidal efficacy or phytotoxicity)	4 (90%-100% of herbicidal efficacy or phytotoxicity)
CCC1(C)CN(Cc2ccccc2N(C(=O)OCC(C)C)S(=O)(=O)C(F)(F)F)C(=S)O1 (centres unmarked) [1-181]	4 (90%-100% of herbicidal efficacy or phytotoxicity)	4 (90%-100% of herbicidal efficacy or phytotoxicity)	4 (90%-100% of herbicidal efficacy or phytotoxicity)	10	1 (1%-39% of herbicidal efficacy or phytotoxicity)	4 (90%-100% of herbicidal efficacy or phytotoxicity)	4 (90%-100% of herbicidal efficacy or phytotoxicity)	4 (90%-100% of herbicidal efficacy or phytotoxicity)
CCC1(CC)CN(Cc2ccccc2N(C(=O)OC)S(=O)(=O)C(F)(F)F)C(=S)O1 [1-183]	4 (90%-100% of herbicidal efficacy or phytotoxicity)	4 (90%-100% of herbicidal efficacy or phytotoxicity)	4 (90%-100% of herbicidal efficacy or phytotoxicity)	10	1 (1%-39% of herbicidal efficacy or phytotoxicity)	4 (90%-100% of herbicidal efficacy or phytotoxicity)	4 (90%-100% of herbicidal efficacy or phytotoxicity)	4 (90%-100% of herbicidal efficacy or phytotoxicity)
COC(=O)N(c1ccccc1CN1CC(C)(C)SC1=O)S(=O)(=O)C(F)(F)F [1-186]	4 (90%-100% of herbicidal efficacy or phytotoxicity)	4 (90%-100% of herbicidal efficacy or phytotoxicity)	4 (90%-100% of herbicidal efficacy or phytotoxicity)	10	1 (1%-39% of herbicidal efficacy or phytotoxicity)	4 (90%-100% of herbicidal efficacy or phytotoxicity)	4 (90%-100% of herbicidal efficacy or phytotoxicity)	4 (90%-100% of herbicidal efficacy or phytotoxicity)
